The text below walks through data of ChEMBL document CHEMBL3991601, “The target landscape of clinical kinase drugs” (Science, 2017).

Assay [1] addresses Mitogen-activated protein kinase 7 (Homo sapiens, UniProt Q13164).
Assay [2] has as its target T1, Probable ATP-dependent RNA helicase DDX6 (Homo sapiens, UniProt P26196).
T1 sequence (P26196 whole entry): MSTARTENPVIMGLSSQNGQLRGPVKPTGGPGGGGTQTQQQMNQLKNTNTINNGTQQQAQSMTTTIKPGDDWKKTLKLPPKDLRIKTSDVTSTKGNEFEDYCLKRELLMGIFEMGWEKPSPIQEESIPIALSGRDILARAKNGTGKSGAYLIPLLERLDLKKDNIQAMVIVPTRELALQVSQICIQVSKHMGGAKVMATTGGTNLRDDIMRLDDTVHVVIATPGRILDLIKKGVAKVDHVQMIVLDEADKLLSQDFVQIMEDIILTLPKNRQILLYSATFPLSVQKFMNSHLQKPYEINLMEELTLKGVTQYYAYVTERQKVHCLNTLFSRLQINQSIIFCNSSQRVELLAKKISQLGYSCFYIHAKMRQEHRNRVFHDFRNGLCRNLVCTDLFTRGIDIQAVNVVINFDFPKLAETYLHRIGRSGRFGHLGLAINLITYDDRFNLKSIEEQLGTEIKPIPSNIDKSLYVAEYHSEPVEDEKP

Assay [3] concerns the target T2, Cyclin-G-associated kinase (Homo sapiens, UniProt O14976).
T2 sequence (O14976 whole entry): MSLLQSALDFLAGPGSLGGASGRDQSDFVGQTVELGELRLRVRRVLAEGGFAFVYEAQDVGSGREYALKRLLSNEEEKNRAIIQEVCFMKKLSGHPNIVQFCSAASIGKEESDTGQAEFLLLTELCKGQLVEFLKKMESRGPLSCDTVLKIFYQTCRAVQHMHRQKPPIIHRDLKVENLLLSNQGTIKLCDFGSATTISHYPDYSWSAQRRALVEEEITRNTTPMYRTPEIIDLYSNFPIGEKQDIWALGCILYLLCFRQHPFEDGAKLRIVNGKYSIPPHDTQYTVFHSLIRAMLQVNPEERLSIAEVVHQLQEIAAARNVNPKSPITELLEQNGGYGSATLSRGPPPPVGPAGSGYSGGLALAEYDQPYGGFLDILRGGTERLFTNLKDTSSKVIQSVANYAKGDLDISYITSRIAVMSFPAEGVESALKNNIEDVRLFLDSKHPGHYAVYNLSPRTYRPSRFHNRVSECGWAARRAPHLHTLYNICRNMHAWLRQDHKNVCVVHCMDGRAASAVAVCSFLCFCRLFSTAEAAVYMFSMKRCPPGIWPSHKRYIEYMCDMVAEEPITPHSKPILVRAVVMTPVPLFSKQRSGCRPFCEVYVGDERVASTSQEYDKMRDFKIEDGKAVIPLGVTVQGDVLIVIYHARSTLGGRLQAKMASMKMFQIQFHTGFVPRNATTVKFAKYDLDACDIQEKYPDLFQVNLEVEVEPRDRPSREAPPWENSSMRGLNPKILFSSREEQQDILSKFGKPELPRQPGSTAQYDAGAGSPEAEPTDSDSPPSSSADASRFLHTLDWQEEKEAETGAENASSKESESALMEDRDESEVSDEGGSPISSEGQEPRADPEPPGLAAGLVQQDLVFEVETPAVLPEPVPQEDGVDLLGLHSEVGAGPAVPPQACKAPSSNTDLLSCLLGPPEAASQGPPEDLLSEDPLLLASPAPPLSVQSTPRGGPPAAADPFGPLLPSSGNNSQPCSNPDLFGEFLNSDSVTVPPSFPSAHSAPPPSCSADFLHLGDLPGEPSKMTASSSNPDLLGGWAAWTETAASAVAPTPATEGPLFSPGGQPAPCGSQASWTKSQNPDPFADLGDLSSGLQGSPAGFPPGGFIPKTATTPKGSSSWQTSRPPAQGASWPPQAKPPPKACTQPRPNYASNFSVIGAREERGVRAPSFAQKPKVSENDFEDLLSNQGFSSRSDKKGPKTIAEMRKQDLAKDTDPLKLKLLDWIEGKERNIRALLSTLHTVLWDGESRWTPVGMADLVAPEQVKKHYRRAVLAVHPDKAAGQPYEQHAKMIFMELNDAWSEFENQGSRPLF

Assay [4] has as its target T3, Phosphatidylinositol 5-phosphate 4-kinase type-2 gamma (Homo sapiens, UniProt Q8TBX8).
T3 sequence (Q8TBX8 whole entry): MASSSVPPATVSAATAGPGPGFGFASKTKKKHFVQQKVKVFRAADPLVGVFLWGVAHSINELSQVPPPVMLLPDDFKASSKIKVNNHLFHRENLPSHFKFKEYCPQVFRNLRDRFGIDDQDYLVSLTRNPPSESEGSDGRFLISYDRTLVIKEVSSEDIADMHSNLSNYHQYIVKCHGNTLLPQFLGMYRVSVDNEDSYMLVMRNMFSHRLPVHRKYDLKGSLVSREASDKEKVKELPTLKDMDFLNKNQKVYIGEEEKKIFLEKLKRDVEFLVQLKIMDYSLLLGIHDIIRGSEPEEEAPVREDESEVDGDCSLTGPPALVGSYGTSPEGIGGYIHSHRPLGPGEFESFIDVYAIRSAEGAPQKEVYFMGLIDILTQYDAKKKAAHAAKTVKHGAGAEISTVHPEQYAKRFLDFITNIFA

The target in assay [5] is Adenylate kinase 2, mitochondrial (Homo sapiens, UniProt P54819).
Assay [6] concerns the target Ephrin type-A receptor 2 (Homo sapiens, UniProt P29317).
In assay [7] the target is Ribosomal protein S6 kinase alpha-3 (Homo sapiens, UniProt P51812).
Ribosomal protein S6 kinase alpha-3, sequence (P51812 whole entry): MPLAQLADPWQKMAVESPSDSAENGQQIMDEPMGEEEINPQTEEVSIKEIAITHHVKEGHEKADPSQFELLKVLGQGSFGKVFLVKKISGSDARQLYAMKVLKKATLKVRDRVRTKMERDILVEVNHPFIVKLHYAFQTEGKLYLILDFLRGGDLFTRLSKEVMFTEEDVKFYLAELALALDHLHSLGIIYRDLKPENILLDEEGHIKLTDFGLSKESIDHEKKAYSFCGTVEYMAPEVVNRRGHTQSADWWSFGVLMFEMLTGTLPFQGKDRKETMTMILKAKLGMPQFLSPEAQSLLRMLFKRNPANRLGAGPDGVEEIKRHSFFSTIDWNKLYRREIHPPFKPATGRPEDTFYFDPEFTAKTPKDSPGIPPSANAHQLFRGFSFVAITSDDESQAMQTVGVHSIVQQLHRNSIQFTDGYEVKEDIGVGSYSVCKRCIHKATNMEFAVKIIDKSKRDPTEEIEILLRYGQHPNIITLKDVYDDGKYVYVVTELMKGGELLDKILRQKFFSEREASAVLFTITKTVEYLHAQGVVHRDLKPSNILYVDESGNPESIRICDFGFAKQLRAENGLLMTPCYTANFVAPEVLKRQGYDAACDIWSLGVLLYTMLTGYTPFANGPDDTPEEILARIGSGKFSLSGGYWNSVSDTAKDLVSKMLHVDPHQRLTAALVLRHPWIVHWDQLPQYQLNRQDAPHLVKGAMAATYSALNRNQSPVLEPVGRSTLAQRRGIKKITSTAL
Assay [8] addresses Insulin receptor (Homo sapiens, UniProt P06213).
For assay [9], the target named is T4, MAP kinase-activated protein kinase 5 (Homo sapiens, UniProt Q8IW41).
T4 sequence (Q8IW41 whole entry): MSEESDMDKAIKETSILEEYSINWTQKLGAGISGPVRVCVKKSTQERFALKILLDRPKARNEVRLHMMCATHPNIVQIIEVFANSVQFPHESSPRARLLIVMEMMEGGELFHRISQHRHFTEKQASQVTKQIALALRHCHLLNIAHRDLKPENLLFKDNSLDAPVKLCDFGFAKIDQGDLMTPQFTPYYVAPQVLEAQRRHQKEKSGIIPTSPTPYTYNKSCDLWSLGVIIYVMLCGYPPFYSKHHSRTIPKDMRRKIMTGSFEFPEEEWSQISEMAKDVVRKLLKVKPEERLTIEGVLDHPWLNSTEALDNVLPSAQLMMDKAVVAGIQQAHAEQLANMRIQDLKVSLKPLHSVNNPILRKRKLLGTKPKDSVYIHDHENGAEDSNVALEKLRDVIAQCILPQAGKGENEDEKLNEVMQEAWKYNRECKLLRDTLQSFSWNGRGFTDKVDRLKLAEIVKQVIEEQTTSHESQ

The source made the active and inactive calls.
Note: in the data inactive means no Kd found up to 30 µM.

Insulin receptor, sequence (P06213 28-758 limits assumed): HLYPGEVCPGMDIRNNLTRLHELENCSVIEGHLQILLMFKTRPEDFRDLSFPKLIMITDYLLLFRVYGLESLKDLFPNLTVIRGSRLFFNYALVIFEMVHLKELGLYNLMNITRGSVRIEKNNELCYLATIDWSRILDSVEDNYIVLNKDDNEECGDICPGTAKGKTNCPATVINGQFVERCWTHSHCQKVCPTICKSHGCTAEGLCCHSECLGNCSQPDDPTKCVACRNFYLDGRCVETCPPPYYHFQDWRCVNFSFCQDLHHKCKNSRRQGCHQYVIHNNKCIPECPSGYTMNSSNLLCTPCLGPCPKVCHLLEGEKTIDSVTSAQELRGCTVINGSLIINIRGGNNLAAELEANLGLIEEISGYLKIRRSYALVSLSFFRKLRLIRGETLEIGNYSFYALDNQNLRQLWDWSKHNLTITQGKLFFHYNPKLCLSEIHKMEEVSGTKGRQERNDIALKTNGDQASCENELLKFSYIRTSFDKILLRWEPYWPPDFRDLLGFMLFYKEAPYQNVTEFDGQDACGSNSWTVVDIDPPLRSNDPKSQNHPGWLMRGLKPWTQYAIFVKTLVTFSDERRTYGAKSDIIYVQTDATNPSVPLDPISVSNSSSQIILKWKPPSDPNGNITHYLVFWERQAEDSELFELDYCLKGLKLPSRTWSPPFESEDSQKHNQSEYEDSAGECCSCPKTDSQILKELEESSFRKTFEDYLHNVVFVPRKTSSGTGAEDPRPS
Insulin receptor, sequence (P06213 763-1382 limits assumed): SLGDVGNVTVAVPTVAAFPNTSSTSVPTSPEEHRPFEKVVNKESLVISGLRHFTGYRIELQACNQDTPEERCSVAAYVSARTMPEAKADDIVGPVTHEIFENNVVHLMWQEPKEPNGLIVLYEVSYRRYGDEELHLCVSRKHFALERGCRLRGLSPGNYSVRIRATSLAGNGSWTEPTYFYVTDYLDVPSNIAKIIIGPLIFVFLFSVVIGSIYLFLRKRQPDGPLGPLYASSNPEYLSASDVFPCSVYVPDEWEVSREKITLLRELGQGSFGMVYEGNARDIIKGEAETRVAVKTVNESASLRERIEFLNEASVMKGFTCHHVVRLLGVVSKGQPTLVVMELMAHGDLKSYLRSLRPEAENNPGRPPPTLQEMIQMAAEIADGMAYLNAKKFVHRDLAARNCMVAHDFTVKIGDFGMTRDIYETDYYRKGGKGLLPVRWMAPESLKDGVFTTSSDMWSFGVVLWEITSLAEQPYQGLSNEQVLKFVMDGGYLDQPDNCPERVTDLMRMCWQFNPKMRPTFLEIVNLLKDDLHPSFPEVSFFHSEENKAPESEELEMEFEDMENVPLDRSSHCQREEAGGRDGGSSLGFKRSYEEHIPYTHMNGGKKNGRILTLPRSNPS
Ephrin type-A receptor 2, sequence (P29317 whole entry): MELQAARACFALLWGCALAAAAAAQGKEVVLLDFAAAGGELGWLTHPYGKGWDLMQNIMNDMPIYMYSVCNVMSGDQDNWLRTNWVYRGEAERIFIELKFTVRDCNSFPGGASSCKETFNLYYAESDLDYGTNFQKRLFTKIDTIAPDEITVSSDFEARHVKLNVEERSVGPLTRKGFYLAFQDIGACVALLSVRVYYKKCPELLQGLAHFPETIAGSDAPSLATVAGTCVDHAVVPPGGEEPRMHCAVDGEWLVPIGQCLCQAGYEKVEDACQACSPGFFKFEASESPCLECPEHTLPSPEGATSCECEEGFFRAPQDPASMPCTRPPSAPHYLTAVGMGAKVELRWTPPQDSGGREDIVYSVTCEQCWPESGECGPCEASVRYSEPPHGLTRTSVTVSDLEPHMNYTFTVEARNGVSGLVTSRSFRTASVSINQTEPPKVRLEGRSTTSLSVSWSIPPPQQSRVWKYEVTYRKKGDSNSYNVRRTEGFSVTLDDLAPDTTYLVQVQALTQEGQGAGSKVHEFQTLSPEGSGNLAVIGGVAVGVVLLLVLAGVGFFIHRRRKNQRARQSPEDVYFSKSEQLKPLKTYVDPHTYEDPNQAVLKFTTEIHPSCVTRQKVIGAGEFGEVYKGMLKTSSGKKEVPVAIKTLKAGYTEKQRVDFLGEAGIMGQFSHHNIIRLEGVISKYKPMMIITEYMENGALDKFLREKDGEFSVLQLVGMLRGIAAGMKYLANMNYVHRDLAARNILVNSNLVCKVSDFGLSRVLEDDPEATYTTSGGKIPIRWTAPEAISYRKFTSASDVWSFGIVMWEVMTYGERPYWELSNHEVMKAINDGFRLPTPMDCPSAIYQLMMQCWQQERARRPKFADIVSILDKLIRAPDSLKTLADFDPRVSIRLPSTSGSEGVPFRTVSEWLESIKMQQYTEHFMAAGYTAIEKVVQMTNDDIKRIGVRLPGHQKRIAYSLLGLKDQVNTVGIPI
Mitogen-activated protein kinase 7, sequence (Q13164 whole entry): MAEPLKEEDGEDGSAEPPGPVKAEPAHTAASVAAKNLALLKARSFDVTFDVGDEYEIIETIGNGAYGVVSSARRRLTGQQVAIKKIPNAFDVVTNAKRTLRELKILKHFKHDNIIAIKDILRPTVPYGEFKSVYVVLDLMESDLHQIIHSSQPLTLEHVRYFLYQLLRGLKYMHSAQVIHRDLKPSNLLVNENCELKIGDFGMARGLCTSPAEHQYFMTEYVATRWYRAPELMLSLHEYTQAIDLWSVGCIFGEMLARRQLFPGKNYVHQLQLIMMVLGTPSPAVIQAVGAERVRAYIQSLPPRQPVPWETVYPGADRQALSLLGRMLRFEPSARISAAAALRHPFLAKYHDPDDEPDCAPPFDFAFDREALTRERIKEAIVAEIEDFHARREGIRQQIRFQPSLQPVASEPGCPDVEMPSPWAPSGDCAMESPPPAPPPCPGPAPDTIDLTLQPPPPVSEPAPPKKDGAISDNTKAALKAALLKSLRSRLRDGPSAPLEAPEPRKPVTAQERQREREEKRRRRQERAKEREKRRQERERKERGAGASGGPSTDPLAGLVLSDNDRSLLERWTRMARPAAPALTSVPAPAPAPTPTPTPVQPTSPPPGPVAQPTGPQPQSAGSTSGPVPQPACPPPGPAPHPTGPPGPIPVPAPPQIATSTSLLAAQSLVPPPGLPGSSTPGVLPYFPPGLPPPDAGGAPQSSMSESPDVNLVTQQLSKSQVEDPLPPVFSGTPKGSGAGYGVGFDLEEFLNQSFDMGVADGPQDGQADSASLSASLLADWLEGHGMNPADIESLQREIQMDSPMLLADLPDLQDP

Take `CNC(=O)CN1CCC(Oc2cc3c(Nc4cccc(Cl)c4F)ncnc3cc2OC)CC1` [SAPITINIB]: the Kd in assay [1] was > 30 µM (inactive); in assay [2] it was > 30 µM (inactive); in assay [3], 0.176 µM (active); in [4] it was > 30 µM (inactive); in [5], > 30 µM (inactive); in [6], 8.2 µM. The Kd in assay [7], in assay [8] and in [9] was > 30 µM (inactive) throughout.

As to `O=C(c1ccc(F)c(F)c1Nc1ccc(I)cc1F)N1CC(O)([C@@H]2CCCCN2)C1` [COBIMETINIB], the Kd in assay [1], in [2], in assay [3], in [4], in assay [5] and in [6] was > 30 µM (inactive) in each case. For the same compound, the Kd in assay [7], in [8] and in [9] was > 30 µM (inactive) throughout.

Consider `Cc1ccc(S(=O)(=O)Nc2nc3ccccc3nc2Nc2ccc3nsnc3c2)cc1`, for which the Kd in [1], in [2], in assay [3], in [4], in assay [5] and in assay [6] was > 30 µM (inactive) throughout. In addition, the Kd in [7], in [8] and in assay [9] was > 30 µM (inactive) in each case.

In the case of `Cc1ccc(NC(=O)c2ccc(CN3CC[C@H](N(C)C)C3)c(C(F)(F)F)c2)cc1Nc1nccc(-c2cncnc2)n1` [BAFETINIB], the Kd is > 30 µM (inactive) in [1]; > 30 µM (inactive) in assay [2]; > 30 µM (inactive) in [3]; 6.18 µM in assay [4]; > 30 µM (inactive) in assay [5]; 0.09 µM (active) in [6]. In addition, the Kd in [7], in [8] and in [9] was > 30 µM (inactive) throughout.

Consider `Cc1ccc(-n2nc(C(C)(C)C)cc2NC(=O)NCc2cc(F)ccc2Oc2ccc3c(cnn3CCO)c2)cc1` [PEXMETINIB], for which the Kd was > 30 µM (inactive) in [1]; > 30 µM (inactive) in assay [2]; > 30 µM (inactive) in [3]; > 30 µM (inactive) in [4]; > 30 µM (inactive) in assay [5]; 2.56 µM (active) in assay [6]. Further, the Kd in assay [7], in assay [8] and in [9] was > 30 µM (inactive) each time.

Take `CNS(=O)(=O)Nc1nccc(Cc2c(C)c3ccc(Oc4ncccn4)cc3oc2=O)c1F` [AVUTOMETINIB]: the Kd in [1], in [2], in assay [3], in assay [4], in [5] and in assay [6] was > 30 µM (inactive) in each case. Besides, the Kd in assay [7], in [8] and in assay [9] was > 30 µM (inactive) throughout.

Turning to `COc1ccc(-c2ccc3c(N4CCOC[C@@H]4C)nc(N4CCOC[C@@H]4C)nc3n2)cc1CO` [AZD-8055], the Kd in [1], in assay [2], in assay [3], in [4], in [5] and in [6] was > 30 µM (inactive) each time. The Kd in [7], in assay [8] and in assay [9] was > 30 µM (inactive) in each case.

As to `COc1cc(N2CCC(N3CCN(C)CC3)CC2)ccc1Nc1ncnc(Nc2ccccc2S(=O)(=O)C(C)C)n1` [ASP-3026], the Kd in assay [1] was > 30 µM (inactive); in assay [2], > 30 µM (inactive); in assay [3] it was 2.82 µM (active); in assay [4], > 30 µM (inactive); in assay [5] it was > 30 µM (inactive); in assay [6] it was 1.25 µM (active). The Kd is > 30 µM (inactive) in [7], 7.91 µM (active) in assay [8] and > 30 µM (inactive) in [9].

Take `CN1CCC(CNc2ccc3ncc(-c4cccc(OC(F)(F)F)c4)n3n2)CC1` [SGI-1776]: the Kd in assay [1] was > 30 µM (inactive); in assay [2], > 30 µM (inactive); in assay [3], 8.63 µM (active); in assay [4], > 30 µM (inactive); in assay [5] it was > 30 µM (inactive); in assay [6] it was > 30 µM (inactive). Also, the Kd in assay [7], in assay [8] and in assay [9] was > 30 µM (inactive) in each case.

With `CC(=O)Nc1cccc(-n2c(=O)n(C3CC3)c(=O)c3c(Nc4ccc(I)cc4F)n(C)c(=O)c(C)c32)c1` [TRAMETINIB], the Kd in assay [1], in assay [2], in [3], in [4], in [5] and in assay [6] was > 30 µM (inactive) each time. The Kd in [7], in assay [8] and in [9] was > 30 µM (inactive) throughout.

For the compound `CCCS(=O)(=O)Nc1ccc(F)c(C(=O)c2c[nH]c3ncc(-c4ccc(Cl)cc4)cc23)c1F` [VEMURAFENIB], the Kd in assay [1], in assay [2], in assay [3], in assay [4], in assay [5] and in assay [6] was > 30 µM (inactive) in each case. For the same compound, the Kd in [7], in [8] and in [9] was > 30 µM (inactive) throughout.

A word on the Kd: it is the free concentration of one partner at which half of the binding sites on the other are occupied at equilibrium, for simple one-to-one binding.
